ChEMBL document CHEMBL5154765, “Design, synthesis, and biological evaluation of novel spiro[pyrrolidine-2,3'-quinolin]-2'-one derivatives as potential chitin synthase inhibitors and antifungal agents” (Eur J Med Chem, 2022)
≈ marks a conversion by molar mass, not a printed value.

Legend:
Candida tropicalis = test: Inhibition of Candida tropicalis ATCC750 chitin synthase at 300 ug/ml using UDP-GlcNAc as substrate incubated for 1 hr by microplate reader analysis relative to control; conditions: dose 300.0 µg/ml
[1] = Inhibition of Candida tropicalis ATCC750 chitin synthase using UDP-GlcNAc as substrate incubated for 1 hr by microplate reader analysis
Candida albicans [2] = test: Antifungal activity against Candida albicans ATCC 76615 assessed as reduction in fungal growth incubated for 24 hrs by two fold broth dilution method; assay type: functional
Aspergillus flavus [3] = test: Antifungal activity against Aspergillus flavus ATCC 16870 assessed as reduction in fungal growth incubated for 24 hrs by two fold broth dilution method; assay type: functional
Aspergillus fumigatus [4] = test: Antifungal activity against Aspergillus fumigatus GIMCC 3.19 assessed as reduction in fungal growth incubated for 24 hrs by two fold broth dilution method; assay type: functional
Cryptococcus neoformans [5] = test: Antifungal activity against Cryptococcus neoformans ATCC 32719 assessed as reduction in fungal growth incubated for 24 hrs by two fold broth dilution method; assay type: functional
Candida albicans [6] = test: Antifungal activity against fluconazole resistant Candida albicans ATCC 76615 assessed as reduction in fungal growth incubated for 24 hrs by two fold broth dilution method; assay type: functional
Aspergillus flavus [7] = test: Antifungal activity against fluconazole resistant Aspergillus flavus ATCC 16870 assessed as reduction in fungal growth incubated for 24 hrs by two fold broth dilution method; assay type: functional
Aspergillus fumigatus [8] = test: Antifungal activity against fluconazole resistant Aspergillus fumigatus GIMCC 3.19 assessed as reduction in fungal growth incubated for 24 hrs by two fold broth dilution method; assay type: functional
Cryptococcus neoformans [9] = test: Antifungal activity against fluconazole resistant Cryptococcus neoformans ATCC 32719 assessed as reduction in fungal growth incubated for 24 hrs by two fold broth dilution method; assay type: functional
Candida albicans [10] = test: Antifungal activity against Candida albicans ATCC 76615 assessed as reduction in fungal growth in presence of sorbitol incubated for 24 hrs by two fold broth dilution method; assay type: functional
Aspergillus flavus [11] = test: Antifungal activity against Aspergillus flavus ATCC 16870 assessed as reduction in fungal growth in presence of sorbitol incubated for 24 hrs by two fold broth dilution method; assay type: functional
Aspergillus fumigatus [12] = test: Antifungal activity against Aspergillus fumigatus GIMCC 3.19 assessed as reduction in fungal growth in presence of sorbitol incubated for 24 hrs by two fold broth dilution method; assay type: functional
Cryptococcus neoformans [13] = test: Antifungal activity against Cryptococcus neoformans ATCC 32719 assessed as reduction in fungal growth in presence of sorbitol incubated for 24 hrs by two fold broth dilution method; assay type: functional
Candida albicans [14] = test: Antifungal activity against micafungin resistant Candida albicans ATCC 76615 assessed as reduction in fungal growth incubated for 24 hrs by two fold broth dilution method; assay type: functional

| Structure (SMILES) | inhibition (Candida tropicalis) [%] | IC50 [1] [µM] | MIC (Candida albicans [2]) [µg/mL] | MIC (Aspergillus flavus [3]) [µg/mL] | MIC (Aspergillus fumigatus [4]) [µg/mL] | MIC (Cryptococcus neoformans [5]) [µg/mL] | MIC (Candida albicans [6]) [µg/mL] | MIC (Aspergillus flavus [7]) [µg/mL] | MIC (Aspergillus fumigatus [8]) [µg/mL] | MIC (Cryptococcus neoformans [9]) [µg/mL] | MIC (Candida albicans [10]) [µg/mL] | MIC (Aspergillus flavus [11]) [µg/mL] | MIC (Aspergillus fumigatus [12]) [µg/mL] | MIC (Cryptococcus neoformans [13]) [µg/mL] | MIC (Candida albicans [14]) [µg/mL] |
| --- | --- | --- | --- | --- | --- | --- | --- | --- | --- | --- | --- | --- | --- | --- | --- |
| Cc1cccc(NC(=O)/C=C/C(=O)N2CCCC23Cc2ccccc2NC3=O)c1 (centres undefined) | 44.1 | 1210 | 16 (≈ 41.1 µM) | 32 (≈ 82.2 µM) | 64 (≈ 164 µM) | 128 (≈ 329 µM) |  |  |  |  |  |  |  |  |  |
| OC(Cn1cncn1)(Cn1cncn1)c1ccc(F)cc1F [FLUCONAZOLE] |  |  | 4 (≈ 13.1 µM) | 8 (≈ 26.1 µM) | 4 (≈ 13.1 µM) | 8 (≈ 26.1 µM) | > 256 | > 256 | > 256 | > 256 |  |  |  |  |  |
| O=C(/C=C/C(=O)N1CCCC12Cc1ccccc1NC2=O)Nc1ccccc1Cl (centres undefined) | 76.1 | 120 | 4 (≈ 9.76 µM) | 8 (≈ 19.5 µM) | 4 (≈ 9.76 µM) | 8 (≈ 19.5 µM) | 32 (≈ 78.1 µM) | 16 (≈ 39 µM) | 32 (≈ 78.1 µM) | 32 (≈ 78.1 µM) | 32 | 128 | 64 | 64 | 32 (≈ 78.1 µM) |
| Cc1ccc(NC(=O)/C=C/C(=O)N2CCCC23Cc2ccccc2NC3=O)cc1 (centres undefined) | 46.4 | 1070 | 32 (≈ 82.2 µM) | 16 (≈ 41.1 µM) | 64 (≈ 164 µM) | 64 (≈ 164 µM) |  |  |  |  |  |  |  |  |  |
| COc1ccccc1NC(=O)/C=C/C(=O)N1CCCC12Cc1ccccc1NC2=O (centres undefined) | 65.2 | 300 | 8 (≈ 19.7 µM) | 16 (≈ 39.5 µM) | 8 (≈ 19.7 µM) | 64 (≈ 158 µM) |  |  |  |  |  |  |  |  |  |
| COc1cccc(NC(=O)/C=C/C(=O)N2CCCC23Cc2ccccc2NC3=O)c1 (centres undefined) | 48.3 | 770 | 8 (≈ 19.7 µM) | 16 (≈ 39.5 µM) | 32 (≈ 78.9 µM) | 32 (≈ 78.9 µM) |  |  |  |  |  |  |  |  |  |
| NC(=O)OC[C@H](O)[C@@H](O)[C@H](N)C(=O)N[C@H](C(=O)O)[C@H]1O[C@@H](n2cc(CO)c(=O)[nH]c2=O)[C@H](O)[C@@H]1O [POLYOXIN B] | 86.1 | 90 | 8 (≈ 15.8 µM) | 8 (≈ 15.8 µM) | 8 (≈ 15.8 µM) | 16 (≈ 31.5 µM) |  |  |  |  | 64 | 64 | 64 | 128 |  |
| COc1cc(NC(=O)/C=C/C(=O)N2CCCC23Cc2ccccc2NC3=O)c(OC)cc1Cl (centres undefined) | 67.9 | 200 | 8 (≈ 17 µM) | 16 (≈ 34 µM) | 32 (≈ 68.1 µM) | 32 (≈ 68.1 µM) |  |  |  |  |  |  |  |  |  |
| Cc1ccccc1NC(=O)/C=C/C(=O)N1CCCC12Cc1ccccc1NC2=O (centres undefined) | 47.2 | 970 | 8 (≈ 20.5 µM) | 16 (≈ 41.1 µM) | 8 (≈ 20.5 µM) | 64 (≈ 164 µM) |  |  |  |  |  |  |  |  |  |
